Experimental data as given in PubChem BioAssay (NCI).
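Each compound was tested at five concentrations against cells in 96-well plates for 48 hours. Abbreviation: GI50, concentration required for 50% inhibition of growth. TGI: total growth inhibition.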

What was measured:
Assay in all cases: NCI tumour cell line growth inhibition, 48 h
LOX IMVI melanoma = test system: LOX IMVI melanoma
NCI-H23 lung = test system: NCI-H23 lung
EKVX NSCLC = test system: EKVX NSCLC
SK-OV-3 ovarian = test system: SK-OV-3 ovarian
A498 renal = test system: A498 renal
UACC-257 melanoma = test system: UACC-257 melanoma
KM12 colon = test system: KM12 colon
HCT-15 colon = test system: HCT-15 colon
MDA-MB-231 breast = test system: MDA-MB-231 breast
HS 578T breast = test system: HS 578T breast
T-47D breast = test system: T-47D breast
OVCAR-4 ovarian = test system: OVCAR-4 ovarian
OVCAR-5 ovarian = test system: OVCAR-5 ovarian
CAKI-1 renal = test system: CAKI-1 renal
SF-295 CNS = test system: SF-295 CNS
MALME-3M melanoma = test system: MALME-3M melanoma
PC-3 prostate = test system: PC-3 prostate
HT29 colon = test system: HT29 colon
HOP-62 NSCLC = test system: HOP-62 NSCLC
ACHN renal = test system: ACHN renal
MCF7 breast = test system: MCF7 breast
MOLT-4 leukemia = test system: MOLT-4 leukemia
U251 CNS = test system: U251 CNS
NCI-H226 lung = test system: NCI-H226 lung
OVCAR-3 ovarian = test system: OVCAR-3 ovarian
COLO 205 colon = test system: COLO 205 colon
NCI-H522 lung = test system: NCI-H522 lung
SF-539 CNS = test system: SF-539 CNS
TK-10 renal = test system: TK-10 renal
K-562 leukemia = test system: K-562 leukemia
NCI/ADR-RES ovarian = test system: NCI/ADR-RES ovarian
M14 melanoma = test system: M14 melanoma
HCC-2998 colon = test system: HCC-2998 colon
SW-620 colon = test system: SW-620 colon
DU-145 prostate = test system: DU-145 prostate
BT-549 breast = test system: BT-549 breast
HOP-92 NSCLC = test system: HOP-92 NSCLC
SK-MEL-28 melanoma = test system: SK-MEL-28 melanoma
SN12C renal = test system: SN12C renal
786-0 renal = test system: 786-0 renal
SK-MEL-2 melanoma = test system: SK-MEL-2 melanoma
SK-MEL-5 melanoma = test system: SK-MEL-5 melanoma
CCRF-CEM leukemia = test system: CCRF-CEM leukemia
RXF 393 renal = test system: RXF 393 renal
OVCAR-8 ovarian = test system: OVCAR-8 ovarian
UACC-62 melanoma = test system: UACC-62 melanoma
HCT-116 colon = test system: HCT-116 colon
NCI-H460 lung = test system: NCI-H460 lung
MDA-MB-435 = test system: MDA-MB-435
SNB-19 CNS = test system: SNB-19 CNS
HL-60(TB) leukemia = test system: HL-60(TB) leukemia
SF-268 CNS = test system: SF-268 CNS
SNB-75 CNS = test system: SNB-75 CNS
IGROV1 ovarian = test system: IGROV1 ovarian
RPMI-8226 leukemia = test system: RPMI-8226 leukemia
SR leukemia = test system: SR leukemia
UO-31 renal = test system: UO-31 renal

Question: For `COC1=C(C)C(=O)c2c(c(CCCl)c3n2CCC3O)C1=O` (centres undefined), which GI50 (LOX IMVI melanoma) is on record?
Answer: 592 nM

Question: And the TGI (LOX IMVI melanoma)?
Answer: 5230 nM

Question: And the GI50 (NCI-H23 lung)?
Answer: 133 nM

Question: What about the TGI (NCI-H23 lung) of the same molecule?
Answer: 799 nM

Question: And the GI50 (EKVX NSCLC)?
Answer: 2300 nM

Question: And the TGI (EKVX NSCLC)?
Answer: 7690 nM

Question: And the GI50 (SK-OV-3 ovarian)?
Answer: 412 nM

Question: What about the TGI (SK-OV-3 ovarian) of the same molecule?
Answer: 3370 nM

Question: What about the GI50 (A498 renal) of the same molecule?
Answer: 145 nM

Question: And the TGI (A498 renal)?
Answer: 313 nM

Question: What about the GI50 (UACC-257 melanoma) of the same molecule?
Answer: 839 nM

Question: And the TGI (UACC-257 melanoma)?
Answer: 3450 nM

Question: And the GI50 (KM12 colon)?
Answer: 1370 nM

Question: And the TGI (KM12 colon)?
Answer: 6730 nM

Question: And the GI50 (HCT-15 colon)?
Answer: 220 nM

Question: And the TGI (HCT-15 colon)?
Answer: 4400 nM

Question: And the GI50 (MDA-MB-231 breast)?
Answer: 21800 nM

Question: And the TGI (MDA-MB-231 breast)?
Answer: 83000 nM

Question: What about the GI50 (HS 578T breast) of the same molecule?
Answer: 1060 nM

Question: And the TGI (HS 578T breast)?
Answer: 6650 nM

Question: And the GI50 (T-47D breast)?
Answer: 16300 nM

Question: What about the TGI (T-47D breast) of the same molecule?
Answer: > 82900 nM

Question: What about the GI50 (OVCAR-4 ovarian) of the same molecule?
Answer: 9360 nM

Question: What about the TGI (OVCAR-4 ovarian) of the same molecule?
Answer: 39000 nM

Question: And the GI50 (OVCAR-5 ovarian)?
Answer: 411 nM

Question: And the TGI (OVCAR-5 ovarian)?
Answer: 7720 nM

Question: What about the GI50 (CAKI-1 renal) of the same molecule?
Answer: 1220 nM

Question: What about the TGI (CAKI-1 renal) of the same molecule?
Answer: 3950 nM

Question: What about the GI50 (SF-295 CNS) of the same molecule?
Answer: 237 nM

Question: And the TGI (SF-295 CNS)?
Answer: 779 nM

Question: And the GI50 (MALME-3M melanoma)?
Answer: 230 nM

Question: And the TGI (MALME-3M melanoma)?
Answer: 584 nM

Question: And the GI50 (PC-3 prostate)?
Answer: 1420 nM

Question: And the TGI (PC-3 prostate)?
Answer: 10800 nM

Question: What about the GI50 (HT29 colon) of the same molecule?
Answer: 197 nM

Question: What about the TGI (HT29 colon) of the same molecule?
Answer: 670 nM

Question: And the GI50 (HOP-62 NSCLC)?
Answer: 235 nM

Question: And the TGI (HOP-62 NSCLC)?
Answer: 1830 nM

Question: What about the GI50 (ACHN renal) of the same molecule?
Answer: 327 nM

Question: What about the TGI (ACHN renal) of the same molecule?
Answer: 6830 nM

Question: And the GI50 (MCF7 breast)?
Answer: 125 nM

Question: And the TGI (MCF7 breast)?
Answer: 1900 nM

Question: What about the GI50 (MOLT-4 leukemia) of the same molecule?
Answer: 7370 nM

Question: And the TGI (MOLT-4 leukemia)?
Answer: 99400 nM

Question: And the GI50 (U251 CNS)?
Answer: 360 nM

Question: What about the TGI (U251 CNS) of the same molecule?
Answer: 11900 nM

Question: And the GI50 (NCI-H226 lung)?
Answer: 764 nM

Question: What about the TGI (NCI-H226 lung) of the same molecule?
Answer: 5500 nM

Question: And the GI50 (OVCAR-3 ovarian)?
Answer: 2190 nM

Question: What about the TGI (OVCAR-3 ovarian) of the same molecule?
Answer: 6720 nM

Question: What about the GI50 (COLO 205 colon) of the same molecule?
Answer: 203 nM

Question: What about the TGI (COLO 205 colon) of the same molecule?
Answer: 720 nM

Question: And the GI50 (NCI-H522 lung)?
Answer: 224 nM

Question: What about the TGI (NCI-H522 lung) of the same molecule?
Answer: 1170 nM

Question: And the GI50 (SF-539 CNS)?
Answer: 302 nM

Question: And the TGI (SF-539 CNS)?
Answer: 1160 nM

Question: And the GI50 (TK-10 renal)?
Answer: 296 nM

Question: And the TGI (TK-10 renal)?
Answer: 763 nM

Question: What about the GI50 (K-562 leukemia) of the same molecule?
Answer: 2210 nM

Question: And the TGI (K-562 leukemia)?
Answer: > 40700 nM

Question: What about the GI50 (NCI/ADR-RES ovarian) of the same molecule?
Answer: 872 nM

Question: And the TGI (NCI/ADR-RES ovarian)?
Answer: 7610 nM

Question: And the GI50 (M14 melanoma)?
Answer: 264 nM

Question: And the TGI (M14 melanoma)?
Answer: 1210 nM

Question: And the GI50 (HCC-2998 colon)?
Answer: 348 nM

Question: What about the TGI (HCC-2998 colon) of the same molecule?
Answer: 1570 nM

Question: What about the GI50 (SW-620 colon) of the same molecule?
Answer: 1090 nM

Question: And the TGI (SW-620 colon)?
Answer: 15800 nM

Question: What about the GI50 (DU-145 prostate) of the same molecule?
Answer: 39 nM

Question: What about the TGI (DU-145 prostate) of the same molecule?
Answer: 1900 nM

Question: And the GI50 (BT-549 breast)?
Answer: 247 nM

Question: What about the TGI (BT-549 breast) of the same molecule?
Answer: 1090 nM

Question: And the GI50 (HOP-92 NSCLC)?
Answer: 6210 nM

Question: And the TGI (HOP-92 NSCLC)?
Answer: 24700 nM

Question: And the GI50 (SK-MEL-28 melanoma)?
Answer: 811 nM

Question: And the TGI (SK-MEL-28 melanoma)?
Answer: 3850 nM

Question: And the GI50 (SN12C renal)?
Answer: 694 nM

Question: What about the TGI (SN12C renal) of the same molecule?
Answer: 14200 nM

Question: And the GI50 (786-0 renal)?
Answer: 810 nM

Question: And the TGI (786-0 renal)?
Answer: 6500 nM

Question: And the GI50 (SK-MEL-2 melanoma)?
Answer: 376 nM

Question: And the TGI (SK-MEL-2 melanoma)?
Answer: 1570 nM

Question: And the GI50 (SK-MEL-5 melanoma)?
Answer: 148 nM

Question: And the TGI (SK-MEL-5 melanoma)?
Answer: 291 nM

Question: What about the GI50 (CCRF-CEM leukemia) of the same molecule?
Answer: 4600 nM

Question: And the TGI (CCRF-CEM leukemia)?
Answer: > 72200 nM

Question: What about the GI50 (RXF 393 renal) of the same molecule?
Answer: 226 nM

Question: What about the TGI (RXF 393 renal) of the same molecule?
Answer: 597 nM

Question: What about the GI50 (OVCAR-8 ovarian) of the same molecule?
Answer: 1780 nM

Question: And the TGI (OVCAR-8 ovarian)?
Answer: 23900 nM

Question: And the GI50 (UACC-62 melanoma)?
Answer: 319 nM

Question: What about the TGI (UACC-62 melanoma) of the same molecule?
Answer: 1280 nM

Question: What about the GI50 (HCT-116 colon) of the same molecule?
Answer: 1530 nM

Question: And the TGI (HCT-116 colon)?
Answer: > 100000 nM

Question: What about the GI50 (NCI-H460 lung) of the same molecule?
Answer: 178 nM

Question: What about the TGI (NCI-H460 lung) of the same molecule?
Answer: 2790 nM

Question: And the GI50 (MDA-MB-435)?
Answer: 1240 nM

Question: What about the TGI (MDA-MB-435) of the same molecule?
Answer: 2790 nM

Question: And the GI50 (SNB-19 CNS)?
Answer: 407 nM

Question: What about the TGI (SNB-19 CNS) of the same molecule?
Answer: 13600 nM

Question: And the GI50 (HL-60(TB) leukemia)?
Answer: 3340 nM

Question: And the TGI (HL-60(TB) leukemia)?
Answer: 30400 nM

Question: And the GI50 (SF-268 CNS)?
Answer: 533 nM

Question: What about the TGI (SF-268 CNS) of the same molecule?
Answer: 20000 nM

Question: What about the GI50 (SNB-75 CNS) of the same molecule?
Answer: 191 nM

Question: And the TGI (SNB-75 CNS)?
Answer: 628 nM

Question: And the GI50 (IGROV1 ovarian)?
Answer: 2590 nM

Question: And the TGI (IGROV1 ovarian)?
Answer: 12400 nM

Question: And the GI50 (RPMI-8226 leukemia)?
Answer: 3080 nM

Question: And the TGI (RPMI-8226 leukemia)?
Answer: 21800 nM

Question: What about the GI50 (SR leukemia) of the same molecule?
Answer: 409 nM

Question: What about the TGI (SR leukemia) of the same molecule?
Answer: > 26800 nM

Question: And the GI50 (UO-31 renal)?
Answer: 545 nM

Question: What about the TGI (UO-31 renal) of the same molecule?
Answer: 2420 nM
